According to patent US9315490B2, “2,5-substituted pyrimidines” (Grünenthal GmbH, priority 2014, dated 2016):

target: T1, human PDE4B1 (Homo sapiens, UniProt Q07343); experiment: cAMP HTRF assay to determine the activity of hPDE4B1; assay type: biochemical; conditions: inhibition of PDE4B at a test concentration of 1 μM
T1 construct: host or cells: Sf9 cells
Outline: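 […], using HTRF quantitation of residual cAMP after 1 mM IBMX stop and 60 min detection. Enzyme was Sf9-expressed human PDE4B1 incubated 30 min at room temperature with 40 nM final cAMP at pH 7.8.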

T1 sequence (Q07343 whole entry): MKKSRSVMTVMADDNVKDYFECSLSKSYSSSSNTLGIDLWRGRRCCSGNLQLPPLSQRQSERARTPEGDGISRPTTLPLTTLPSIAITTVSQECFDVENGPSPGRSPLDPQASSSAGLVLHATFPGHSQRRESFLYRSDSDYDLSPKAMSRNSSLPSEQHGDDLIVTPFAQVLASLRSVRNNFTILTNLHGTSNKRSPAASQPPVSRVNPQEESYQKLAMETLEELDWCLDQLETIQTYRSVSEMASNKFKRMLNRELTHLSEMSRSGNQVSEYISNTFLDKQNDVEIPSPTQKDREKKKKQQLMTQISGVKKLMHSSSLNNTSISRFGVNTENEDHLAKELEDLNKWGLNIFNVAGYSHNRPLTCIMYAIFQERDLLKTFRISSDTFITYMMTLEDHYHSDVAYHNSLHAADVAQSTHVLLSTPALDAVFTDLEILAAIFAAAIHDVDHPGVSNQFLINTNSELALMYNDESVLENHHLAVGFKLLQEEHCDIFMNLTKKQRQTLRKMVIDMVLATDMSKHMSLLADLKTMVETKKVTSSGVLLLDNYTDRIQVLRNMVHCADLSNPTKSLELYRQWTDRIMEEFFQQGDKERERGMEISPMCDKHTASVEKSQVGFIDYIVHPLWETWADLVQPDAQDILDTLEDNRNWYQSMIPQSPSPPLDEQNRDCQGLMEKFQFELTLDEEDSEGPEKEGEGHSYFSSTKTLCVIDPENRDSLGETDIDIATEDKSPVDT

Point of comparison: `CS(=O)(=O)c1cn(-c2ncc(-c3ccccc3)cn2)c2cc(C(=O)N3C[C@H]4C[C@@H]3CO4)ccc12` [Example 237, (1R,4R)-2-Oxa-5-azabicyclo[2.2.1]heptan-5-yl(3-(methylsulfonyl)-1-(5-phenylpyrimidin-2-yl)-1H-indol-6-yl)methanone], inhibition at 1 µM 36%. Against it:
- CS(=O)(=O)c1cn(-c2ncc(-c3ccccc3F)cn2)c2cc(C(=O)N3C[C@H]4C[C@@H]3CO4)ccc12 [Example 238, (1R,4R)-2-Oxa-5-azabicyclo[2.2.1]heptan-5-yl(1-(5-(2-fluorophenyl)pyrimidin-2-yl)-3-(methylsulfonyl)-1H-indol-6-yl)methanone] — lower, 32%
- CS(=O)(=O)c1cn(-c2ncc(-c3ccccc3F)cn2)c2cc(C(=O)N3C[C@@H]4C[C@H]3CN4)ccc12 [Example 239, (1S,4S)-2,5-Diazabicyclo[2.2.1]heptan-2-yl(1-(5-(2-fluorophenyl)pyrimidin-2-yl)-3-(methylsulfonyl)-1H-indol-6-yl)methanone] — higher, 78%
- C[S+]([O-])c1cn(-c2ncc(-c3ccccc3F)cn2)c2cc(C(=O)N3C[C@@H]4C[C@H]3CN4)ccc12 (stereo partly drawn) [Example 240, (1S,4S)-2,5-Diazabicyclo[2.2.1]heptan-2-yl(1-(5-(2-fluorophenyl)pyrimidin-2-yl)-3-(methylsulfinyl)-1H-indol-6-yl)methanone] — higher, 101%
- C[S+]([O-])c1cn(-c2ncc(-c3ccccc3F)cn2)c2cc(C(=O)N3C[C@@H]4CCN[C@@H]4C3)ccc12 (stereo partly drawn) [Example 242, (1-(5-(2-Fluorophenyl)pyrimidin-2-yl)-3-(methylsulfinyl)-1H-indol-6-yl)((3aS,6aS)-hexahydropyrrolo[3,4-b]pyrrol-5(1H)-yl)methanone] — higher, 66%
- C[S+]([O-])c1cn(-c2ncc(-c3ccccc3F)cn2)c2cc(C(=O)N3C[C@H]4C[C@@H]3CO4)ccc12 (stereo partly drawn) [Example 243, (1R,4R)-2-Oxa-5-azabicyclo[2.2.1]heptan-5-yl(1-(5-(2-fluorophenyl)pyrimidin-2-yl)-3-(methylsulfinyl)-1H-indol-6-yl)methanone] — higher, 64%
- C[S+]([O-])c1cn(-c2ncc(-c3ccccn3)cn2)c2cc(C(=O)N3C[C@@H]4C[C@H]3CN4)ccc12 (stereo partly drawn) [Example 244, (1S,4S)-2,5-Diazabicyclo[2.2.1]heptan-2-yl(3-(methylsulfinyl)-1-(5-(pyridin-2-yl)pyrimidin-2-yl)-1H-indol-6-yl)methanone] — higher, 102%
- CN(CC1(O)CC1)C(=O)c1ccc2c([S+](C)[O-])cn(-c3ncc(-c4ccccc4F)cn3)c2c1 (centres unmarked) [Example 250, 1-(5-(2-Fluorophenyl)pyrimidin-2-yl)-N-((1-hydroxycyclopropyl)methyl)-N-methyl-3-(methylsulfinyl)-1H-indole-6-carboxamide] — lower, 30%
- C[C@H](O)CN(C)C(=O)c1ccc2c([S+](C)[O-])cn(-c3ncc(-c4ccccc4F)cn3)c2c1 (stereo partly drawn) [Example 251, 1-(5-(2-Fluorophenyl)pyrimidin-2-yl)-N—((S)-2-hydroxypropyl)-N-methyl-3-(methylsulfinyl)-1H-indole-6-carboxamide] — higher, 45%
- C[S+]([O-])c1cn(-c2ncc(-c3ccccc3F)cn2)c2cc(C(=O)N3CCC3)ccc12 (centres unmarked) [Example 355, Azetidin-1-yl(1-(5-(2-fluorophenyl)pyrimidin-2-yl)-3-(methylsulfinyl)-1H-indol-6-yl)methanone] — higher, 77%
- CCN(C)C(=O)c1ccc2c([S+](C)[O-])cn(-c3ncc(-c4ccccc4F)cn3)c2c1 (centres unmarked) [Example 356, N-Ethyl-1-(5-(2-fluorophenyl)pyrimidin-2-yl)-N-methyl-3-(methylsulfinyl)-1H-indole-6-carboxamide] — higher, 96%
- CCN(CC)C(=O)c1ccc2c([S+](C)[O-])cn(-c3ncc(-c4ccccc4F)cn3)c2c1 (centres unmarked) [Example 357, N,N-Diethyl-1-(5-(2-fluorophenyl)pyrimidin-2-yl)-3-(methylsulfinyl)-1H-indole-6-carboxamide] — higher, 107%
- C[S+]([O-])c1cn(-c2ncc(-c3ccccc3F)cn2)c2cc(C(=O)N3CCCCC3)ccc12 (centres unmarked) [Example 358, (1-(5-(2-Fluorophenyl)pyrimidin-2-yl)-3-(methylsulfinyl)-1H-indol-6-yl)(piperidin-1-yl)methanone] — higher, 98%
- CC1CCCN1C(=O)c1ccc2c([S+](C)[O-])cn(-c3ncc(-c4ccccc4F)cn3)c2c1 (centres unmarked) [Example 359, (1-(5-(2-Fluorophenyl)pyrimidin-2-yl)-3-(methylsulfinyl)-1H-indol-6-yl)(2-methylpyrrolidin-1-yl)methanone] — higher, 90%
- CN(CC1CC1)C(=O)c1ccc2c([S+](C)[O-])cn(-c3ncc(-c4ccccc4F)cn3)c2c1 (centres unmarked) [Example 360, N-(Cyclopropylmethyl)-1-(5-(2-fluorophenyl)pyrimidin-2-yl)-N-methyl-3-(methylsulfinyl)-1H-indole-6-carboxamide] — higher, 75%
- CC1CCCCN1C(=O)c1ccc2c([S+](C)[O-])cn(-c3ncc(-c4ccccc4F)cn3)c2c1 (centres unmarked) [Example 361, (1-(5-(2-Fluorophenyl)pyrimidin-2-yl)-3-(methylsulfinyl)-1H-indol-6-yl)(2-methylpiperidin-1-yl)methanone] — higher, 40%
- CC1CCCN(C(=O)c2ccc3c([S+](C)[O-])cn(-c4ncc(-c5ccccc5F)cn4)c3c2)C1 (centres unmarked) [Example 362, (1-(5-(2-Fluorophenyl)pyrimidin-2-yl)-3-(methylsulfinyl)-1H-indol-6-yl)(3-methylpiperidin-1-yl)methanone] — higher, 78%
- CC1CCN(C(=O)c2ccc3c([S+](C)[O-])cn(-c4ncc(-c5ccccc5F)cn4)c3c2)CC1 (centres unmarked) [Example 363, (1-(5-(2-Fluorophenyl)pyrimidin-2-yl)-3-(methylsulfinyl)-1H-indol-6-yl)(4-methylpiperidin-1-yl)methanone] — higher, 41%
- C[S+]([O-])c1cn(-c2ncc(-c3ccccc3F)cn2)c2cc(C(=O)N3CCCCCC3)ccc12 (centres unmarked) [Example 364, Azepan-1-yl(1-(5-(2-fluorophenyl)pyrimidin-2-yl)-3-(methylsulfinyl)-1H-indol-6-yl)methanone] — higher, 73%
- CN1CCN(C(=O)c2ccc3c([S+](C)[O-])cn(-c4ncc(-c5ccccc5F)cn4)c3c2)CC1 (centres unmarked) [Example 365, (1-(5-(2-Fluorophenyl)pyrimidin-2-yl)-3-(methylsulfinyl)-1H-indol-6-yl)(4-methylpiperazin-1-yl)methanone] — higher, 54%
- CC(C)N(C(=O)c1ccc2c([S+](C)[O-])cn(-c3ncc(-c4ccccc4F)cn3)c2c1)C(C)C (centres unmarked) [Example 366, 1-(5-(2-Fluorophenyl)pyrimidin-2-yl)-N,N-diisopropyl-3-(methylsulfinyl)-1H-indole-6-carboxamide] — lower, 30%
- CN(C)CCN(C)C(=O)c1ccc2c([S+](C)[O-])cn(-c3ncc(-c4ccccc4F)cn3)c2c1 (centres unmarked) [Example 367, N-(2-(Dimethylamino)ethyl)-1-(5-(2-fluorophenyl)pyrimidin-2-yl)-N-methyl-3-(methylsulfinyl)-1H-indole-6-carboxamide] — higher, 40%
- C[S+]([O-])c1cn(-c2ncc(-c3ccccc3F)cn2)c2cc(C(=O)N3CCSCC3)ccc12 (centres unmarked) [Example 368, (1-(5-(2-Fluorophenyl)pyrimidin-2-yl)-3-(methylsulfinyl)-1H-indol-6-yl)(thiomorpholino)methanone] — higher, 103%
